Broadly, the EC50 is the concentration needed to bring the measured effect to its halfway point.

This is an account of results in patent publication US20090029983A1, “NOVEL HETEROCYCLIC COMPOUNDS HAVING ANTI-HBV ACTIVITY” (priority 2005, published 2009).

One assay concerns HBV. Nature of the assay: HBV screening assay (viral DNA in baculovirus-HBV transduced HepG2 cells). The assay is classed as cell-based. As to conditions: Hepatitis B virus, HepG2, 72 h, read-out: EC50 (antiviral activity), HBV-transduced HepG2 cells, three days with compound, viral DNA by ELISA. An outline of the steps: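 HepG2 cells transduced with baculovirus carrying the HBV genome were grown 3 days at 37 °C with compound in EMEM/10% FBS; viral DNA from lysates captured by solid-phase hybridisation with digoxigenin probes and read by anti-digoxigenin HRP ELISA. EC50 from titration curves; CC50 from non-transduced HepG2 after 3 days by MTS viability.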
Take `NC(=O)c1sc2nc3c(c(-c4cccs4)c2c1N)CN(Cc1cccnc1)C3` [Compound 20, 3-Amino-6-pyridin-3-ylmethyl-4-thiophen-2-yl-6,7-dihydro-5H-1-thia-6,8-diaza-s-indacene-2-carboxylic acid amide]: the EC50 is below 1 µM.
Still for that read-out and setting: for `NC(=O)c1sc2nc3c(c(-c4cccs4)c2c1N)CCCC3C1CCCCC1` (centres unmarked) [Compound 68, 3-Amino-8-cyclohexyl-4-thiophen-2-yl-5,6,7,8-tetrahydro-thieno[2,3-b]quinoline-2-carboxylic acid amide] the value was above 10 µM; for `CC(=O)N1CCc2nc3sc(C(N)=O)c(N)c3c(-c3cccs3)c2C1` [Compound 34, 6-Acetyl-3-amino-4-thiophen-2-yl-5,6,7,8-tetrahydro-thieno[2,3-b][1,6]naphthyridine-2-carboxylic acid amide], above 10 µM; for `NC(=O)c1sc2nc3c(c(-c4cccs4)c2c1N)CCCC3c1ccccc1` (centres unmarked) [Compound 66, 3-Amino-8-phenyl-4-thiophen-2-yl-5,6,7,8-tetrahydro-thieno[2,3-b]quinoline-2-carboxylic acid amide], 1 to 10 µM.
As to `CC(CO)CN1Cc2nc3sc(C(N)=O)c(N)c3c(-c3cccs3)c2C1` (centres unmarked) [Compound 13, 3-Amino-6-(3-hydroxy-2-methyl-propyl)-4-thiophen-2-yl-6,7-dihydro-5H--thia-6,8-diaza-s-indacene-2-carboxylic acid amide], the EC50 lay within 1 to 10 µM.
Still for that read-out and setting: for `NC(=O)c1sc2nc3c(c(-c4cccs4)c2c1N)CCC3CC(=O)NC1CCCCC1` (centres unmarked) [Compound 51, 3-Amino-7-cyclohexylcarbamoylmethyl-4-thiophen-2-yl-6,7-dihydro-5H-cyclopenta[b]thieno[3,2-e]pyridine-2-carboxylic acid amide] the value was above 10 µM; for `NC(=O)c1sc2nc3c(c(-c4cccs4)c2c1N)CCCC3Cc1ccccc1` (centres unmarked) [Compound 64, 3-Amino-8-benzyl-4-thiophen-2-yl-5,6,7,8-tetrahydro-thieno[2,3-b]uinoline-2-carboxylic acid amide], above 10 µM; for `COC(=O)CC1CCc2c1nc1sc(C(N)=O)c(N)c1c2-c1cccs1` (centres unmarked) [Compound 40, 3-Amino-7-carbomethoxymethyl-4-thiophen-2-yl-6,7-dihydro-5H-cyclopenta[b]thieno[3,2-e]pyridine-2-carboxylic acid amide], above 10 µM.
As to `NC(=O)c1sc2nc3c(c(-c4cccs4)c2c1N)CN(C(=S)NCCCc1ccccc1)C3` [Compound 86, 3-Amino-6-(3-phenyl-propylthiocarbamoyl)-4-thiophen-2-yl-6,7-dihydro-5H-1-thia-6,8-diaza-s-indacene-2-carboxylic acid amide], the EC50 was in the range of 1 to 10 µM.
On the same count and under the same terms, then `NC(=O)c1sc2nc3c(c(-c4cccs4)c2c1N)CN(Cc1ccccc1)C3` [Compound 21, 3-Amino-6-benzyl-4-thiophen-2-yl-6,7-dihydro-5H-1-thia-6,8-diaza-s-indacene-2-carboxylic acid amide], with 1 to 10 µM; and `NC(=O)c1sc2nc3c(c(-c4cccs4)c2c1N)CN(C(=S)NCCN1CCOCC1)C3` [Compound 93, 3-Amino-6-(2-morpholin-4-yl-ethylthiocarbamoyl)-4-thiophen-2-yl-6,7-dihydro-5H-1-thia-6,8-diaza-s-indacene-2-c arboxylic acid amide], with above 10 µM; and `NC(=O)c1sc2nc3c(c(-c4cccs4)c2c1N)CN(CCO)C3` [Compound 15, 3-Amino-6-(2-hydroxy-ethyl)-4-thiophen-2-yl-6,7-dihydro-5H-1-thia-6,8-diaza-s-indacene-2-carboxylic acid amide], with 1 to 10 µM.
Same read-out and setting: then `NC(=O)c1sc2nc3c(c(-c4cccs4)c2c1N)CN(CCCCl)C3` [Compound 3, 3-Amino-6-(3-chloro-propyl)-4-thiophen-2-yl-6,7-dihydro-5H-1-thia-6,8-diaza-s-indacene-2-carboxylic acid amide], with 1 to 10 µM.

For the next assay, the system named is HBV.
Test: not given
As to conditions: HBV treatment, background statement; cited from earlier work.
For the compound `CC(C)(C)C(=O)OCOP(=O)(COCCn1cnc2c(N)ncnc21)OCOC(=O)C(C)(C)C` [adefovir dipivoxil, 9-(2-((-bis((pivaloyloxy)methoxy)phosphinyl)methoxy)ethyl)adenine], the “sustained viral response rate” value was “below 20%”.
